“Also recorded” adds a separate entry of the source.
Key:
[1] = systemic FA administration; cited from earlier work
[2] = system: A549-Luci cells; test: Mouse model of metastatic lung tumors, small animal in vivo imaging; parameters: species or system nude mice; conditions: 200 mg/kg tail vein, compared with the control group
Method: To construct a mouse model of metastatic lung tumors, 3×10^6 A549-Luci cells
were injected into the tail vein of nude mice, followed by injection of targeting peptide (CiP; 200 mg/kg) through the tail vein. Control mice were injected with PBS, 4 mg/kg adriamycin (Dox), and a control peptide ([…], targeting peptide, TP) at the same concentration as the CiP peptide; this experiment investigated whether CiP targeting peptide-induced calcification of A549 cells could inhibit lung cancer growth and metastasis. Tumorigenesis was monitored using a small animal in vivo imaging system.
The above experiments were repeated using the E6[…], E10[…], E16[…], and E30[…] peptides.

[3] = system: human non-small cell lung cancer cells (lines A549, H460, and H1299); test: Flow cytometry of cell surface-bound FITC-modified targeting peptide, lung cancer cells; format: binding; conditions: 100 μg/mL FITC-modified peptide, 30 min, Ca2+ up to 2.75 mM, phosphate up to 1.61 mM
Method: (§1) The free amino groups of aspartic acid residues in the targeting peptide were reacted with fluorescein isothiocyanate (FITC) in phosphate-buffered saline (PBS) solution for 12 hours, then dialyzed in dialysis bags for 5 days and lyophilized to obtain FITC-modified targeting peptide molecules.

[4] = system: pulmonary nodules; test: Ultrasound and CT imaging, mouse model of pulmonary nodules; format: in vivo, C57 mice; conditions: 200 mg/kg intravenous, 4 weeks after model establishment
Method: (§2) Fifty micrograms of SodA peptide ([…]) and 0.25 mL of incomplete Freund's adjuvant were mixed and subcutaneously injected into the backs of C57 mice. Two weeks later, 50 μg of SodA peptide and 6000 agarose 4B beads dissolved in 0.2 mL PBS were covalently coupled and injected into the tail vein of the same C57 mice to construct a mouse model of pulmonary nodules. Additionally, 3×10^6 A549-Luci cells were injected into the tail vein of nude mice to construct a mouse model of pulmonary metastatic tumors. Some mice underwent intravenous injection of the targeting peptide (200 mg/kg) to induce calcification; simultaneous ultrasound and CT scans of normal lung cancer, calcified lung cancer, and pulmonary nodules were performed at 4 weeks after model establishment.

[5] = system: A549-Luci cells; test: Ultrasound and CT imaging of calcified lung cancer, mouse model of pulmonary metastatic tumors; format: in vivo, nude mice; conditions: 200 mg/kg intravenous, 4 weeks after model establishment
Method: as §2

[6] = system: Beas-2b human lung epithelial cells; test: CCK8 assay, normal lung epithelial cells; format: cell-based; parameters: dose or concentration left out as unconfirmed; conditions: 48 hours
[7] = system: human non-small cell lung cancer cells (lines A549, H460, and H1299); test: CCK8 assay, lung cancer cells; format: cell-based; parameters: dose or concentration left out as unconfirmed; conditions: 48 hours
Method: CCK8 assays were performed to determine the killing effect of targeting peptide-induced calcification of lung cancer cells.

[8] = system: Beas-2b human lung epithelial cells, and human umbilical vein endothelial cells (HUVECs); test: Flow cytometry of cell surface-bound FITC-modified targeting peptide, normal cells; format: binding; conditions: 100 μg/mL FITC-modified peptide, 30 min
Method: as §1

[9] = system: lung epithelial cells; test: Electron microscopy / EDX elemental scan of cell surface calcification, lung epithelial cells; format: cell-based, human
Text: (§3) Subsequently, they were subjected to electron microscopy to detect calcification on the cell surface.

[10] = system: A549 human non-small cell lung cancer cells; test: Electron microscopy / EDX elemental scan of cell surface calcification, lung cancer cells; format: cell-based; conditions: 1 mg/mL, 48 hours, Ca2+ up to 2.75 mM, phosphate up to 1.61 mM
Text: as §3

Nc1nc2ncc(CNc3ccc(C(=O)N[C@@H](CCC(=O)O)C(=O)O)cc3)nc2c(=O)[nH]1 [FA, folic acid]
body weight [1]: dramatically reduces body weight
survival time [1]: severely decreases survival time
tumor growth [1]: promotes tumor growth

E6TDSILRSYDWTY
growth (and metastasis) of A549 lung cancer cells in vivo [2]: significantly inhibited the growth of A549 cells

E10TDSILRSYDWTY
growth (and metastasis) of A549 lung cancer cells in vivo [2]: significantly inhibited the growth of A549 cells

E16TDSILRSYDWTY
growth (and metastasis) of A549 lung cancer cells in vivo [2]: significantly inhibited the growth of A549 cells

E24 TDSILRSYDWTY [targeting peptide]
binding of targeting peptide to cell surface [3]: selectively bound to the surface of lung cancer cells
identification of pulmonary nodules by imaging [4]: could not be clearly identified by imaging
identification of calcified lung cancer on ultrasound [5]: evident as high-density calcified foci on ultrasound; also recorded: could be clearly identified on ultrasound
visualisation of calcified lung cancer on CT [5]: revealed a clear boundary on CT; also recorded: could be visualized on CT
toxic effects on normal lung epithelial cells [6]: without significant toxic effects on normal lung epithelial cells
proliferative activity / killing effect [7]: selectively inhibited the proliferative activities of various lung cancer cells
growth (and metastasis) of A549 lung cancer cells in vivo [2]: effectively inhibited the growth and metastasis of lung cancer
growth (and metastasis) of A549 lung cancer cells in vivo ([2]; listed as CiP targeting peptide): significantly inhibited the growth of A549 cells
binding of targeting peptide to cell surface [8]: did not bind to normal epithelial cells; also recorded: weakly bound to normal cells
calcification on the cell surface (EDX calcium and phosphorus) [9]: without significantly affecting normal lung epithelial cells; also recorded: less deposition of calcium and phosphorus elements
calcification on the cell surface (EDX calcium and phosphorus peaks) [10]: significantly increased calcification peaks
calcification on the cell surface (EDX calcium and phosphorus peaks) ([10]; listed as CiP): significantly increased

E30TDSILRSYDWTY
growth (and metastasis) of A549 lung cancer cells in vivo [2]: significantly inhibited the growth of A549 cells

From patent US20240058371A1, “MOLECULE FOR INDUCING SPONTANEOUS CALCIFICATION OF TUMOR CELLS AND USE THEREOF” (ZHEJIANG UNIVERSITY, priority 2020, published 2024)
